Active and inactive are the calls of the source. The calls are words filed in the database; no cut-off is given here.
Legend:
Heliothis virescens = experiment: Growth inhibition of tobacco budworm larvae assessed as percent of diet; format: functional
[1] = system: Stenotrophomonas maltophilia; experiment: Antibacterial activity against Pseudomonas maltophilia at 100 ug by test disc paper method; format: functional; conditions: read-out: IZ
Bacillus subtilis = experiment: Antibacterial activity against Bacillus subtilis at 100 ug by test disc paper method; format: functional; conditions: read-out: IZ
Bacillus thuringiensis = experiment: Antibacterial activity against Bacillus thuringiensis at 100 ug by test disc paper method; format: functional; conditions: read-out: IZ
[2] = system: Lysinibacillus sphaericus; experiment: Antibacterial activity against Bacillus sphaericus by test disc paper method; format: functional, organism-based
Solanum lycopersicum = experiment: Growth regulatory activity on tomato root; format: functional, organism-based

Compound	ED50 (Heliothis virescens)	zone of inhibition at 100 µg/disc [1]	zone of inhibition at 100 µg/disc (Bacillus subtilis)	zone of inhibition at 100 µg/disc (Bacillus thuringiensis)	Activity [2]	Activity (Solanum lycopersicum)
O=c1c(O)c(-c2ccc(O)c(O)c2)oc2cc(O)cc(O)c12 [QUERCETIN]	0.05%	10 mm				
C[C@H]1O[C@@H](Oc2c(-c3cc(O)c(O)c(O)c3)oc3cc(O)cc(O)c3c2=O)[C@@H](OC(=O)c2cc(O)c(O)c(O)c2)[C@@H](O)[C@@H]1O	0.09%	10 mm	10 mm	10 mm	Active	
C[C@H]1O[C@@H](Oc2c(-c3cc(O)c(O)c(O)c3)oc3cc(O)cc(O)c3c2=O)[C@@H](O)[C@@H](O)[C@@H]1OC(=O)c1cc(O)c(O)c(O)c1	0.04%					inactive
C[C@H]1O[C@@H](Oc2c(-c3cc(O)c(O)c(O)c3)oc3cc(O)cc(O)c3c2=O)[C@@H](O)[C@@H](O)[C@@H]1O [MYRICITRIN]	0.11%					
O=C(O)c1cc(O)c(O)c(O)c1 [GALLIC ACID]	18.5%		10 mm		Active	
